For one data set, the target named is T1, mARNT (Mus musculus, UniProt P53762, C256S/DEL274-297/DEL351-358).
T1 construct: Mouse ARNT (residues 85–465) was expressed as N-terminal His6-fusion protein; His6 (N); made in house; host or cells: E. coli BL21(DE3)
The data set is described as follows: Label-free MST on mARNT alone. The conditions noted are these: Figure S3. Type of data set: binding. Here is the method: Microscale thermophoresis (MST) experiments were performed according to the manufacturer’s instructions (NanoTemper Technologies GmbH) using a Monolith NT.LabelFree. In brief, 250 nM of purified AhR-ARNT proteins were diluted in assay buffer (20 mM HEPES pH 8.0, 200 mM NaCl, 5% glycerol, 5 mM DTT, and 0.1% Pluronic F-127) and incubated for 5 min, in the presence of a serial dilution of the different ligands (ligand solubilized in DMSO at a final constant concentration of 2%). After incubation, samples were filled into NT.LabelFree Zero Background MST Premium coated capillaries (NanoTemper Technologies GmbH) and measurements were taken at a constant temperature of 22 °C. MST traces were collected with an LED excitation power of 20% and an MST laser power of 20% and 40%. The MO.Control Analysis software (NanoTemper) was used to analyze the interaction affinity and the dissociation constant (Kd) for each ligand using the Kd fit model. In short, changes in the thermophoretic movement were depicted as changes in the normalized fluorescence ratio before and after heating (ΔFnorm [‰]) and plotted as a function of the ligand concentration. The resulting binding curve is fitted by the software using the best fitting method to derive binding constants and thus the Kd.

For data set [1], the target named is T2, recombinant AhR-ARNT complex (Homo sapiens, UniProt P35869).
T2 construct: encompassing the bHLH-PAS A-PAS B domains (amino acid residues 23 to 475); His6 (N, cleaved yes); FleB (Yersinia flagellin subunit, residues 54 to 332, UniProt A1JSQ5) expression tag followed by HRV 3C site (N, cleaved yes); made in house; host or cells: E. coli BL21(DE3)
T2 sequence (P35869 23-475): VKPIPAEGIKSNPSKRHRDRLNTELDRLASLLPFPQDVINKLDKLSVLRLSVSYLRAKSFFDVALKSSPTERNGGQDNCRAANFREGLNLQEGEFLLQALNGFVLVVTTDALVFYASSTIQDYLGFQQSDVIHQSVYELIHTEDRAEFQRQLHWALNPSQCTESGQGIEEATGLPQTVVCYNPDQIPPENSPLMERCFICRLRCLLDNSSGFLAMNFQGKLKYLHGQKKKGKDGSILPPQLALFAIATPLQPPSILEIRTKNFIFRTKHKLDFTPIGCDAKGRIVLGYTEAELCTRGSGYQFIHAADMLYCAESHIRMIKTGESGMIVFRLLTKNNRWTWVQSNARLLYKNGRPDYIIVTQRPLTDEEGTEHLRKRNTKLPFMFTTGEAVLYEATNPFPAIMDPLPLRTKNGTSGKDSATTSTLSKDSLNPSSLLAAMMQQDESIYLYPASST
T2 sequence (P53762 with tags, fused parts or gaps C256S/DEL274-297/DEL351-358 partner): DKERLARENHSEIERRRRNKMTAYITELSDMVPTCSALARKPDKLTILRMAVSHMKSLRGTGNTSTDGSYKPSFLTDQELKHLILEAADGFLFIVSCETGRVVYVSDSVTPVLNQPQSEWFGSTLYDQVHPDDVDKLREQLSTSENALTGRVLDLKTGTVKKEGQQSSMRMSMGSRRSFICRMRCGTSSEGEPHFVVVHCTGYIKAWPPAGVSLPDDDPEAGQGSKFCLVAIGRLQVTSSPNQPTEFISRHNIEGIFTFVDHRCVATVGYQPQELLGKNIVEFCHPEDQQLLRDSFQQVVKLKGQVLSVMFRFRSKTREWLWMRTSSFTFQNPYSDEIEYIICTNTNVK
The data set is described as follows: Label-free microscale thermophoresis (MST) ligand binding.

The next data set addresses endogenous hAhR. More on the design: method as in PMID 2848187. To be noted: endogenous hAhR in hepatocyte cell lysates; read-out: equilibrium dissociation constant (Kd); cited from earlier work.
The next data set has as its system murine AhR. The conditions noted are these: higher affinity of murine AhR than human AhR; cited from earlier work.
Data set [2] deals with T2, recombinant AhR-ARNT complex. Put plainly: Competition radioligand binding assay ([3H]TCDD displacement) on purified recombinant AhR-ARNT. To be noted: for competition with [3H]TCDD (in words): 4 nM [3H]TCDD, increasing concentrations of unlabeled competitor. On the procedure:
Radioligand binding assays were performed as previously established. Briefly, for saturation experiments, 0.5 mg/mL of purified AhR-ARNT or ARNT protein was diluted in MDEG buffer (25 mM MOPS, 1 mM DTT, 1 mM EDTA, 10% glycerol, 20 mM molybdate, pH 7.5) and incubated with increasing concentrations of radioactively labeled [^3H]TCDD tracer. Reactions were supplemented with liver lysate of AhR-deficient mice (AhR^-/-, C57BL/6 background) to a final protein concentration of 5 mg/mL to reduce unspecific binding and adsorption of the tracer to plastic surfaces. Liver lysates were prepared in MDEG buffer by homogenization using the gentleMacs Dissociator (Miltenyi Biotec), followed by ultracentrifugation at 100,000× g and 4 °C for 1 h. Cytosolic fractions were collected, protein concentration determined by Bradford reaction (Protein Assay Kit, Pierce), and further diluted to a final protein concentration of 5 mg/mL in MDEG buffer. […] Subsequently, 30 μL of a Norit A charcoal suspension (100 mg/mL equilibrated in MDEG buffer) was added into each 200 µL of the reaction mixture. Samples were kept on ice for 15 min and centrifuged for another 15 min at 25,000× g and 4 °C. Following this, 150 μL of the supernatant was carefully transferred and radioactivity was measured in a liquid scintillation counter (Tri-Carb 3110TR, PerkinElmer). All samples were measured in triplicate. For competition assays, a constant concentration of [^3H]TCDD (4 nM final) was used, to which a serial dilution of unlabeled competitor molecule dissolved in DMSO was added in excess. All subsequent steps were carried out as described above. The specific binding was defined as the difference of radioactivity between the reactions supplemented with the recombinant protein and AhR-deficient (Ahr^-/-) mouse lysates. Analysis of the data and calculation of the binding constants Kd and receptor density Bmax were performed with GraphPad Prism 7 using a nonlinear regression fitting a saturation binding isotherm. For competition studies, the IC50 values were obtained by fitting a one-site competitive binding equation to the experimental data. Ki values were derived from IC50 using the Cheng–Prusoff equation [19].

For data set [3], the target named is T3, purified AhR-ARNT complex (recombinant hAhR23–475 with mARNT85–465) (Homo sapiens, UniProt P35869).
T3 construct: encompassing the bHLH-PAS A-PAS B domains (amino acid residues 23 to 475); His6 (N, cleaved yes); FleB (Yersinia flagellin subunit, residues 54 to 332, UniProt A1JSQ5) expression tag followed by HRV 3C site (N, cleaved yes); made in house; host or cells: E. coli BL21(DE3)
T3 sequence (P35869 23-475): as the sequence (P35869 23-475) above
T3 sequence (P53762 with tags, fused parts or gaps C256S/DEL274-297/DEL351-358 partner): as the sequence (P53762 with tags, fused parts or gaps C256S/DEL274-297/DEL351-358 partner) above
Put plainly: Radioligand saturation binding assay with [3H]TCDD on purified recombinant AhR-ARNT. To be noted: 4 °C, 24 h. Here is the method:
Radioligand binding assays were performed as previously established. Briefly, for saturation experiments, 0.5 mg/mL of purified AhR-ARNT or ARNT protein was diluted in MDEG buffer (25 mM MOPS, 1 mM DTT, 1 mM EDTA, 10% glycerol, 20 mM molybdate, pH 7.5) and incubated with increasing concentrations of radioactively labeled [^3H]TCDD tracer. Reactions were supplemented with liver lysate of AhR-deficient mice (AhR^-/-, C57BL/6 background) to a final protein concentration of 5 mg/mL to reduce unspecific binding and adsorption of the tracer to plastic surfaces. Liver lysates were prepared in MDEG buffer by homogenization using the gentleMacs Dissociator (Miltenyi Biotec), followed by ultracentrifugation at 100,000× g and 4 °C for 1 h. Cytosolic fractions were collected, protein concentration determined by Bradford reaction (Protein Assay Kit, Pierce), and further diluted to a final protein concentration of 5 mg/mL in MDEG buffer. […] Following this, 150 μL of the supernatant was carefully transferred and radioactivity was measured in a liquid scintillation counter (Tri-Carb 3110TR, PerkinElmer). All samples were measured in triplicate. […] The specific binding was defined as the difference of radioactivity between the reactions supplemented with the recombinant protein and AhR-deficient (Ahr^-/-) mouse lysates. […]

For data set [4] the following is noted: cited from earlier work.

Like-named read-outs stand apart in the source and are kept apart here.

T1 sequence (P53762 with tags, fused parts or gaps C256S/DEL274-297/DEL351-358): as the sequence (P53762 with tags, fused parts or gaps C256S/DEL274-297/DEL351-358 partner) above

Regarding `Clc1cc2c(cc1Cl)Oc1cc(Cl)c(Cl)cc1O2` [TCDD, 2,3,7,8-Tetrachlorodibenzo-p-dioxin], the “ligand-induced differences in MST traces with mARNT alone (in words)” value at mARNT was “not when mARNT was used alone”. In addition, the Kd in data set [1] was 0.139 ± 0.099 µM; at endogenous hAhR it was 0.0027 to 0.0042 µM; in data set [3] ([3H]TCDD tracer, 0.5 mg/mL protein, AhR-/- mouse liver lysate added) it was 0.039 ± 0.02 µM. The “binding affinity of murine AhR relative to human AhR” value in the data set on murine AhR was roughly 10 fold. Further, the “competition with [3H]TCDD (in words)” value in data set [2] (24 h) is “only an initial competition”. Besides, the “displacement of [3H]TCDD from AhR-ARNT by unlabeled competitor (in words)” value in data set [2] (increasing protein, constant [3H]TCDD, 48 h, Figure S2) is “displacement by unlabeled dioxin detectable”. For the same compound, the “maximal binding capacity (Bmax)” value in data set [3] ([3H]TCDD saturation binding) was 60.3 ± 17.3 pmoles/mg protein. In addition, in data set [4], the “solubility in water (in words)” value was “insolubility in water”.
Consider `Cc1ccccc1N=Nc1ccc(NC(=O)c2ccnn2C)c(C)c1` [CH-223191, 2-Methyl-2H-pyrazole-3-carboxylic acid (2-methyl-4-o-tolylazo-phenyl)-amide], for which the Kd in data set [1] (250 nM AhR-ARNT, 2% DMSO, 22 °C, label-free, read-out: Kd (MST)) came out at 0.496 ± 0.082 µM. For the same compound, the inhibition constant (Ki) in data set [2] (displacement of 4 nM [3H]TCDD, 24 h, 4 °C, read-out: Ki (from IC50 by Cheng–Prusoff)) is 12.2 µM.
For `Oc1cccc2nc3ccccc3nc12` [1-HP, 1-Hydroxyphenazine], the Kd in data set [1] came to 0.943 ± 0.176 µM. Also, the inhibitory constant (Ki) in data set [2] worked out at 9.2 µM.
On to `O=Cc1c2[nH]c3ccccc3c2cc2[nH]c3ccccc3c12` [FICZ, 6-Formylindolo [3,2-b] carbazole], for which the “competition with [3H]TCDD (in words)” value in data set [2] (24 h) is reported as “failed to see competition”. The “stability in aqueous solution (in words)” value in data set [4] (tryptophan group) is recorded as “high instability”.

The Kd is the concentration at which binding is half-saturated. For orientation: Ki means a measure of affinity in units of concentration, obtained from inhibition or displacement.

Source of the values: publication PMC7996170, “Novel Method for Quantifying AhR-Ligand Binding Affinities Using Microscale Thermophoresis” (Biosensors, 2021).
